Patent publication US11084800B2 (Achillion Pharmaceuticals, Inc., priority 2017, dated 2021)

biological target: Human Factor D (Homo sapiens (Human), UniProt P00746); test: Human Factor D Assay; format: biochemical; conditions: Factor D inhibition, assay of Example 10; read-out: IC5 (Stars)
Description: The assay of Example 10 was used to determine the IC50's of the compounds. Other standard factor D inhibition assays are also available.
Human Factor D (purified from human serum, Complement Technology, Inc.) at 80 nM final concentration is incubated with test compound at various concentrations for 5 min at room temperature in 50 mM Tris, 1M NaCl, pH 7.5. A synthetic substrate Z-L-Lys-SBz and DTNB (Ellman's reagent) are added to final concentrations of 100 μM each. Absorbance at 405 nm (A405) is recorded at 30 second intervals for 30 min using a microplate spectrophotometer. IC50 values are calculated by nonlinear regression of complement Factor D reaction rates as a function of test compound concentration.

Chain of Human Factor D (P00746 26-253): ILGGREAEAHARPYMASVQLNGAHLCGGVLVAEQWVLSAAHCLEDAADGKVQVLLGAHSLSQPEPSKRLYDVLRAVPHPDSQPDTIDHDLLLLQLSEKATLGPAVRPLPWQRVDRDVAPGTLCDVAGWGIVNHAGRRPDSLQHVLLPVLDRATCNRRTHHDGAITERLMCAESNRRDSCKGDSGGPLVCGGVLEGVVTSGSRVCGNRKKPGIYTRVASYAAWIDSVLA

Structure (SMILES) | IC50
CC(=O)c1nn(CC(=O)N2[C@H](C(=O)NC(C)(C)c3cccc(Cl)c3F)C[C@@]3(C)C[C@@H]23)c2c(C)cc(-c3cnc(C)nc3)cc12 [Compound 502, (1R,3S,5R)-2-(2-(3-acetyl-7-methyl-5-(2-methylpyrimidin-5-yl)-1H-indazol-1-yl)acetyl)-N-(2-(3-chloro-2-fluorophenyl)propan-2-yl)-5-methyl-2-azabicyclo[3.1.0]hexane-3-carboxamide] | < 1000 nM
Cc1ncc(-c2cc3c(C(N)=O)nn(CC(=O)N4C[C@H]5C[C@H]5[C@H]4C(=O)Nc4nc(Br)ccc4C)c3c(C)n2)cn1 [Compound 436, 1-(2-((1R,25,5S)-2-((6-bromo-3-methylpyridin-2-yl)carbamoyl)-3-azabicyclo[3.1.0]hexan-3-yl)-2-oxoethyl)-7-methyl-5-(2-methylpyrimidin-5-yl)-1H-pyrazolo[3,4-c]pyridine-3-carboxamide] | < 1000 nM
CC(=O)c1nn(CC(=O)N2[C@H](C(=O)Nc3nc(Br)ccc3C)C[C@@]3(CN4C[C@H]5CCC[C@H]5C4)C[C@@H]23)c2cnc(-c3cnc(C)nc3)cc12 [Compound 245, (1R,3S,5R)-2-(2-(3-acetyl-5-(2-methylpyrimidin-5-yl)-1H-pyrazolo[3,4-c]pyridin-1-yl)acetyl)-N-(6-bromo-3-methylpyridin-2-yl)-5-(((3aR,6a5)-hexahydrocyclopenta [c]pyrrol-2(1H)-yl)methyl)-2-azabicyclo[3.1.0]hexane-3-carboxamide] | < 1000 nM
CC(=O)c1nn(CC(=O)N2[C@H](C(=O)Nc3nc(Br)ccc3C)C[C@@]3(CN4CC5(CC5)C4)C[C@@H]23)c2c(C)nc(-c3cnc(C)nc3)cc12 [Compound 370, (1R,3S,5R)-5-(5-azaspiro[2.3]hexan-5-ylmethyl)-2-(2-(3-acetyl-7-methyl-5-(2-methylpyrimidin-5-yl)-1H-pyrazolo[3,4-c]pyridin-1-yl)acetyl)-N-(6-bromo-3-methylpyridin-2-yl)-2-azabicyclo[3.1.0]hexane-3-carboxamide] | < 1000 nM
CSCc1cc(F)c(Br)nc1NC(=O)[C@@H]1C[C@@]2(C)C[C@H]2N1C(=O)Cn1nc(C(C)=O)c2cc(-c3cnc(C)nc3)ccc21 [Compound 438, (1R,5R)-2-(2-(3-Acetyl-5-(2-methylpyrimidin-5-yl)-1H-indazol-1-yl)acetyl)-N-(6-bromo-5-fluoro-3-((methylthio)methyl)pyridin-2-yl)-5-methyl-2-azabicyclo[3.1.0]hexane-3-carboxamide] | < 1000 nM
CC(=O)c1nn(CC(=O)N2[C@H](C(=O)Nc3nc(Br)ccc3C)C[C@@]3(CCCCN(C)C)C[C@@H]23)c2c(CF)cc(-c3cnc(C)nc3)cc12 [Compound 378, (1R,3S,5R)-2-(2-(3-acetyl-7-(fluoromethyl)-5-(2-methylpyrimidin-5-yl)-1H-indazol-1-yl)acetyl)-N-(6-bromo-3-methylpyridin-2-yl)-5-(4-(dimethylamino)butyl)-2-azabicyclo[3.1.0]hexane-3-carboxamide] | < 1000 nM
CC(=O)c1nn(CC(=O)N2C[C@@](F)(Cn3ccnn3)C[C@H]2C(=O)Nc2nc(Br)ccc2C)c2ccc(-c3cnc(C)nc3)cc12 [Compound 304, (2S,4R)-4-((1H-1,2,3-triazol-1-yl)methyl)-1-(2-(3-acetyl-5-(2-methylpyrimidin-5-yl)-1H-indazol-1-yl)acetyl)-N-(6-bromo-3-methylpyridin-2-yl)-4-fluoropyrrolidine-2-carboxamide] | < 1000 nM
CC(=O)c1nn(CC(=O)N2[C@H](C(=O)Nc3nc(Br)c(F)cc3C)C[C@@]3(CF)C[C@@H]23)c2cnc(-c3cnc(C)nc3)cc12 [Compound 251] | < 1000 nM
CC(=O)c1cn(CC(=O)N2[C@H](C(=O)Nc3nc(C(F)(F)F)ccc3C)C[C@@]3(C)C[C@@H]23)c2c(C)cc(-c3cnc(C)nc3)cc12 [Compound 459, (1R,3S,5R)-2-(2-(3-acetyl-7-methyl-5-(2-methylpyrimidin-5-yl)-1H-indol-1-yl)acetyl)-5-methyl-N-(3-methyl-6-(trifluoromethyl)pyridin-2-yl)-2-azabicyclo[3.1.0]hexane-3-carboxamide] | < 1000 nM
CC(=O)c1nn(CC(=O)N2[C@H](C(=O)Nc3cccc(Oc4ccccn4)n3)C[C@@]3(C)C[C@@H]23)c2c(C)cc(-c3cnc(C)nc3)cc12 [Compound 449, (1R,3S,5R)-2-(2-(3-acetyl-7-methyl-5-(2-methylpyrimidin-5-yl)-1H-indazol-1-yl)acetyl)-5-methyl-N-(6-(pyridin-2-yloxy)pyridin-2-yl)-2-azabicyclo[3.1.0]hexane-3-carboxamide] | < 1000 nM
CCc1csc(C[C@@]23C[C@@H](C(=O)Nc4nc(Br)ccc4C)N(C(=O)Cn4nc(C(C)=O)c5cc(-c6cnc(C)nc6)ccc54)[C@@H]2C3)n1 [Compound 339, (1R,3S,5R)-2-(2-(3-acetyl-5-(2-methylpyrimidin-5-yl)-1H-indazol-1-yl)acetyl)-N-(6-bromo-3-methylpyridin-2-yl)-5-((4-ethylthiazol-2-yl)methyl)-2-azabicyclo[3.1.0]hexane-3-carboxamide] | < 1000 nM
CC(=O)c1nn(CC(=O)N2[C@H](C(=O)Nc3nc(Br)ccc3Cl)C[C@@]3(Cc4nnc(C)o4)C[C@@H]23)c2c(C)cc(-c3cnc(C)nc3)cc12 [Compound 486, (1R,3S,5R)-2-(2-(3-acetyl-7-methyl-5-(2-methylpyrimidin-5-yl)-1H-indazol-1-yl)acetyl)-N-(6-bromo-3-chloropyridin-2-yl)-5-((5-methyl-1,3,4-oxadiazol-2-yl)methyl)-2-azabicyclo[3.1.0]hexane-3-carboxamide] | < 1000 nM
COCC1(F)C[C@@H](C(=O)Nc2nc(Br)ccc2C)N(C(=O)Cn2nc(C(C)=O)c3cc(-c4cnc(C)nc4)ccc32)C1 (stereo in doubt) [Compound 421, (2S,4R)-1-(2-(3-Acetyl-5-(2-methylpyrimidin-5-yl)-1H-indazol-1-yl)acetyl)-N-(6-bromo-3-methylpyridin-2-yl)-4-fluoro-4-(methoxymethyl)pyrrolidine-2-carboxamide] | < 1000 nM
CC(=O)c1nn(CC(=O)N2[C@H](C(=O)Nc3nc(C(F)(F)F)ccc3C)C[C@@]3(Cc4nc(C)no4)C[C@@H]23)c2c(C)cc(-c3cnc(C)nc3)cc12 [Compound 425, (1R,3S,5R)-2-(2-(3-acetyl-7-methyl-5-(2-methylpyrimidin-5-yl)-1H-indazol-1-yl)acetyl)-5-((3-methyl-1,2,4-oxadiazol-5-yl)methyl)-N-(3-methyl-6-(trifluoromethyl)pyridin-2-yl)-2-azabicyclo[3.1.0]hexane-3-carboxamide] | < 1000 nM

same assay, conditions: Table 6; Factor D 80 nM, substrate Z-L-Lys-SBz; read-out: IC50

Structure (SMILES) | IC50
CCN(CC)C[C@@]12C[C@@H](C(=O)Nc3nc(Br)ccc3C)N(C(=O)Cn3nc(C(C)=O)c4cc(-c5cnc(C)nc5)cc(C)c43)[C@@H]1C2 [Compound 118, (1R,3S,5R)-2-(2-(3-Acetyl-7-methyl-5-(2-methylpyrimidin-5-yl)-1H-indazol-1-yl)acetyl)-N-(6-bromo-3-methylpyridin-2-yl)-5-((diethylamino)methyl)-2-azabicyclo[3.1.0]hexane-3-carboxamide] | < 1000 nM
CC(=O)c1nn(CC(=O)N2[C@H](C(=O)Nc3nc(Br)ccc3C)C[C@@]3(CN4CCC4)C[C@@H]23)c2c(C)cc(-c3cnc(C)nc3)cc12 [Compound 149, (1R,3S,5R)-2-(2-(3-Acetyl-7-methyl-5-(2-methylpyrimidin-5-yl)-1H-indazol-1-yl)acetyl)-5-(azetidin-1-ylmethyl)-N-(6-bromo-3-methylpyridin-2-yl)-2-azabicyclo[3.1.0]hexane-3-carboxamide] | < 1000 nM
CC(=O)c1nn(CC(=O)N2[C@H](C(=O)Nc3nc(Cl)ccc3CN(C)C)C[C@@]3(C)C[C@@H]23)c2c(C)cc(-c3cnc(C)nc3)cc12 [Compound 137, (1R,3S,5R)-2-(2-(3-Acetyl-7-methyl-5-(2-methylpyrimidin-5-yl)-1H-indazol-1-yl)acetyl)-N-(6-chloro-3-((dimethylamino)methyl)pyridin-2-yl)-5-methyl-2-azabicyclo[3.1.0]hexane-3-carboxamide] | < 1000 nM
CC(=O)c1nn(CC(=O)N2C[C@H]3C[C@H]3[C@H]2C(=O)Nc2nc(Br)c(F)cc2C)c2cnc(-c3cnc(C)nc3)cc12 [Compound 172, (1R,2S,5S)-3-(2-(3-Acetyl-5-(2-methylpyrimidin-5-yl)-1H-pyrazolo[3,4-c]pyridin-1-yl)acetyl)-N-(6-bromo-5-fluoro-3-methylpyridin-2-yl)-3-azabicyclo[3.1.0]hexane-2-carboxamide] | < 1000 nM
CC(=O)c1nn(CC(=O)N2[C@H](C(=O)Nc3nc(Br)cc4ccccc34)C[C@@]3(C)C[C@@H]23)c2ccc(-c3cnc(C)nc3)cc12 [Compound 73, (1R,3S,5R)-2-(2-(3-Acetyl-5-(2-methylpyrimidin-5-yl)-1H-indazol-1-yl)acetyl)-N-(3-bromoisoquinolin-1-yl)-5-methyl-2-azabicyclo[3.1.0]hexane-3-carboxamide] | < 1000 nM
CC(=O)c1nn(CC(=O)N2[C@H](C(=O)Nc3nc(Br)ccc3C3CC3)C[C@@]3(CN(C)C)C[C@@H]23)c2ccc(-c3cnc(C)nc3)cc12 [Compound 112, (1R,3S,5R)-2-(2-(3-Acetyl-5-(2-methylpyrimidin-5-yl)-1H-indazol-1-yl)acetyl)-N-(6-bromo-3-cyclopropylpyridin-2-yl)-5-((dimethylamino)methyl)-2-azabicyclo[3.1.0]hexane-3-carboxamide] | < 1000 nM

same assay, conditions: Table 8; Factor D 80 nM, substrate Z-L-Lys-SBz; read-out: IC50

Structure (SMILES) | IC50
Cc1ncc(-c2ccc3c(c2)c(C(=O)NCC(C)(C)C)nn3CC(=O)N2[C@H](C(=O)Nc3nc(Br)ccc3C)C[C@@]3(C)C[C@@H]23)cn1 [Compound 480] | > 10000 nM
